Legend:
[1] = test system: NCI-H2228; assay: Antiproliferative activity against human H2228 cells assessed as reduction in cell viability incubated for 72 hrs by MTT assay; format: functional, cell-based; conditions: NCI-H2228, 72 h
[2] = test system: A549; assay: Antiproliferative activity against human A549 cells assessed as reduction in cell viability incubated for 72 hr by MTT assay; conditions: A549, 72 h
[3] = test system: KARPAS-299; assay: Antiproliferative activity against human Karpas299 cells assessed as reduction in cell viability incubated for 72 hrs by MTT assay; conditions: KARPAS-299, 72 h
[4] = molecular target: ALK tyrosine kinase receptor (Homo sapiens, UniProt Q9UM73, L1196M); assay: Inhibition of ALK L1196M (unknown origin) incubated for 1 hr
[5] = molecular target: ALK tyrosine kinase receptor (Homo sapiens, UniProt Q9UM73); assay: Inhibition of wild-type ALK (unknown origin) incubated for 1 hr
Chain of ALK tyrosine kinase receptor (Homo sapiens, UniProt Q9UM73) (Q9UM73 whole entry): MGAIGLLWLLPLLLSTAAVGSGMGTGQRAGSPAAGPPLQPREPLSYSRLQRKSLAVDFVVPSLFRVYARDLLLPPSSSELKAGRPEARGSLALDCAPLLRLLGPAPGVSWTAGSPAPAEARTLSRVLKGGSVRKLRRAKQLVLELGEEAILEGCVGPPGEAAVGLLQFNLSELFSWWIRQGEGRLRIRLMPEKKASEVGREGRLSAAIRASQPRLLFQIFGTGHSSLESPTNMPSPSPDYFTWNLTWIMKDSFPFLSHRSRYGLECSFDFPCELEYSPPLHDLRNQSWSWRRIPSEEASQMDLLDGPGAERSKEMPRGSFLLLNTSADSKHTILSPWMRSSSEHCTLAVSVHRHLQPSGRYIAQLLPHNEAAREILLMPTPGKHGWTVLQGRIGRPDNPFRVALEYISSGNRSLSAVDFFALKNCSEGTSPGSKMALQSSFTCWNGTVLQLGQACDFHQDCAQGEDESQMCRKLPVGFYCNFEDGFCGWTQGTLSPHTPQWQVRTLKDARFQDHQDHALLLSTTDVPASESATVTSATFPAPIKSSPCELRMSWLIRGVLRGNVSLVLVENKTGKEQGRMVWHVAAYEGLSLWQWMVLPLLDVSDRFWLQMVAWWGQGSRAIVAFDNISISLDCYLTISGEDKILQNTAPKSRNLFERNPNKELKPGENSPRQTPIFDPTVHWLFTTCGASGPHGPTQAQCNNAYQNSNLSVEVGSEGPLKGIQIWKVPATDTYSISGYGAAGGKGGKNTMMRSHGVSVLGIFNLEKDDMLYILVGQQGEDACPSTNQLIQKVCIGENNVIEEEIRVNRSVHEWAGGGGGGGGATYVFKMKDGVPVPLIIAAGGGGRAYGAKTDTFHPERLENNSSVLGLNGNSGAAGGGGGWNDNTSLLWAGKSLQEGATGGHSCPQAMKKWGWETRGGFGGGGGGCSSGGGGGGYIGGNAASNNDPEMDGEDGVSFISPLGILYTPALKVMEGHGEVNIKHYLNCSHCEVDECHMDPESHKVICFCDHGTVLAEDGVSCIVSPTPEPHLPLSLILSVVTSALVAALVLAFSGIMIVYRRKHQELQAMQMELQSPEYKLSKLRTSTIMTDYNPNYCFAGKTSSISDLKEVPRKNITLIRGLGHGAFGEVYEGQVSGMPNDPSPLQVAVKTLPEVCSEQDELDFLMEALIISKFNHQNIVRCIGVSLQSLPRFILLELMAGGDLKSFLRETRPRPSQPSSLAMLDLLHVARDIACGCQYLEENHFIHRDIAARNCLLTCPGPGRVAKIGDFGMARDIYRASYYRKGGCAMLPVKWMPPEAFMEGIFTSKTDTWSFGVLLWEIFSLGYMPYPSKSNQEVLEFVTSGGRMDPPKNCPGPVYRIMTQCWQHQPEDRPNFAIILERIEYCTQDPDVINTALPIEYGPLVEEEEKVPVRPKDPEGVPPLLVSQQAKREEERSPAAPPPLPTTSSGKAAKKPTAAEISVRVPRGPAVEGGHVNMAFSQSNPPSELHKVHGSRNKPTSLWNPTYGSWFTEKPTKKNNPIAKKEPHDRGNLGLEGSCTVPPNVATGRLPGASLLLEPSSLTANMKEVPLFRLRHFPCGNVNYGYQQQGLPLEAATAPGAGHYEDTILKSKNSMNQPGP

Chain of ALK tyrosine kinase receptor (Homo sapiens, UniProt Q9UM73, L1196M) (Q9UM73 19-1620 L1196M limits assumed): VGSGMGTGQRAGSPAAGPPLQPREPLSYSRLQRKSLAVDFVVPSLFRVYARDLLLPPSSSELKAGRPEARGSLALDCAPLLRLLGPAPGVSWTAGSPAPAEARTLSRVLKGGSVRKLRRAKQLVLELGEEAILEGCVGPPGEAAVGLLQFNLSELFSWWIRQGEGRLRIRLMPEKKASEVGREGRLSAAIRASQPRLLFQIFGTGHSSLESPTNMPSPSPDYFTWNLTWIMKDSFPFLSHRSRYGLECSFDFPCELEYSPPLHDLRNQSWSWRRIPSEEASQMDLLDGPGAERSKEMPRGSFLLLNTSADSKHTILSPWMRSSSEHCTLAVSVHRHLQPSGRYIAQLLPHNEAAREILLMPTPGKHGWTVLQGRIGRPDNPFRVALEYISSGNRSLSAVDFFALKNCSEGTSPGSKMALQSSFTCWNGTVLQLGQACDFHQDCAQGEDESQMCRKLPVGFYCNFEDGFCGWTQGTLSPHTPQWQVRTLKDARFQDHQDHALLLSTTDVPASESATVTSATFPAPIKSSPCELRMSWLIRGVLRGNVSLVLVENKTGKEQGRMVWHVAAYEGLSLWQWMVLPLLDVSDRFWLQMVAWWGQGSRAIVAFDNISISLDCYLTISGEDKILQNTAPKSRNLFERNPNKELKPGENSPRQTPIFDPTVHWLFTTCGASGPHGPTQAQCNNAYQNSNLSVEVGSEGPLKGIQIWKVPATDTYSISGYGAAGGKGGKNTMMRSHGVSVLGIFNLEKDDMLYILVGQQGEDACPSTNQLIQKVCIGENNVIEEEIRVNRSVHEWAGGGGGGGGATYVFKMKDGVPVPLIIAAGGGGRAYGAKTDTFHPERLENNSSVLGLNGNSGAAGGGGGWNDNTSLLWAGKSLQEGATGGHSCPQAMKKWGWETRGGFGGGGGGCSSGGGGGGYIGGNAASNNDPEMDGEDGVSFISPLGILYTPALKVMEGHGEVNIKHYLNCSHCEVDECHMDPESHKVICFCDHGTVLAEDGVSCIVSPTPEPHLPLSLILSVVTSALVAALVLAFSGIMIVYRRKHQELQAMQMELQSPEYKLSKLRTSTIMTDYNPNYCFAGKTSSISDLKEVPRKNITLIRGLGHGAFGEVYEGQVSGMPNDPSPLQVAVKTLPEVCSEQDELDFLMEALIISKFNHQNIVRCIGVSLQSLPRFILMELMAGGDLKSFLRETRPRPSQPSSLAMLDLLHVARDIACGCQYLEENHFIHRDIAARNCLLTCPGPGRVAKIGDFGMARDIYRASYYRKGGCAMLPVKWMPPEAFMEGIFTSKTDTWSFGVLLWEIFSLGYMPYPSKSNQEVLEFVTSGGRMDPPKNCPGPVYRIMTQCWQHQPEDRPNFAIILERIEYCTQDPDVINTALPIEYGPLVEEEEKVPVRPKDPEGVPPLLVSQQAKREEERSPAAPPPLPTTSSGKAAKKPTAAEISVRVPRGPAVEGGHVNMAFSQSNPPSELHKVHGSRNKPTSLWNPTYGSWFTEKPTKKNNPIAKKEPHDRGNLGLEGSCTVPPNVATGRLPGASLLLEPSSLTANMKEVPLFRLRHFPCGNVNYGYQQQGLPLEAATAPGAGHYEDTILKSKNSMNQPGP

| IC50 [1] [nM] | IC50 [2] [µM] | IC50 [3] [nM] | IC50 [4] [nM] | IC50 [5] [nM] | Structure (SMILES) |
| --- | --- | --- | --- | --- | --- |
| 630 | > 10 | 1040 |  |  | COc1cc(-n2cccc2C(=O)N2CCCCC2)ccc1Nc1ncc(Cl)c(Nc2ccccc2NS(C)(=O)=O)n1 |
| 34 | > 10 | 45 | 3.1 | 1.9 | COc1cc(-n2cccc2C(=O)NCCO)ccc1Nc1ncc(Cl)c(Nc2ccccc2NS(C)(=O)=O)n1 |
| 1070 | > 10 | 2310 |  |  | CNC(=O)c1ccccc1Nc1nc(Nc2ccc(-n3cccc3C(=O)N3CCC(C)CC3)cc2OC)ncc1Cl |
| 600 | 4.58 | 870 |  |  | COc1cc(-n2cccc2C(=O)N2CCCC2)ccc1Nc1ncc(Cl)c(Nc2ccccc2NS(C)(=O)=O)n1 |
| 1080 | > 10 | 1250 |  |  | COc1cc(-n2cccc2C(=O)N2CCN(CCO)CC2)ccc1Nc1ncc(Cl)c(Nc2ccccc2NS(C)(=O)=O)n1 |
| 44 | 2.08 | 81 |  |  | COc1cc(-n2cccc2C(=O)N2CC(O)C2)ccc1Nc1ncc(Cl)c(Nc2ccccc2NS(C)(=O)=O)n1 |
| 700 | 1.47 | 930 | 8.3 | 4.5 | COc1cc(-n2cccc2C(=O)N2CCSCC2)ccc1Nc1ncc(Cl)c(Nc2ccccc2NS(C)(=O)=O)n1 |
| 660 | > 10 | 970 |  |  | COc1cc(-n2cccc2C(=O)N2CCC(O)CC2)ccc1Nc1ncc(Cl)c(Nc2ccccc2NS(C)(=O)=O)n1 |
| 54 | > 10 | 78 |  |  | COc1cc(-n2cccc2C(=O)N(C)C)ccc1Nc1ncc(Cl)c(Nc2ccccc2NS(C)(=O)=O)n1 |
| 43 | > 10 | 790 | 13.4 | 9.6 | CNC(=O)c1ccccc1Nc1nc(Nc2ccc(-n3cccc3C(=O)NCCO)cc2OC)ncc1Cl |
| 44 | 4.13 | 740 |  |  | CNC(=O)c1ccccc1Nc1nc(Nc2ccc(-n3cccc3C(=O)N3CC(O)C3)cc2OC)ncc1Cl |
| 1050 | 2.2 | 1370 |  |  | COc1cc(-n2cccc2C(=O)N2CCC(C)CC2)ccc1Nc1ncc(Cl)c(Nc2ccccc2NS(C)(=O)=O)n1 |
| 840 | 2.21 | 1030 |  |  | CNC(=O)c1ccccc1Nc1nc(Nc2ccc(-n3cccc3C(=O)N3CCOCC3)cc2OC)ncc1Cl |
| 990 | > 10 | 1610 |  |  | CNC(=O)c1ccccc1Nc1nc(Nc2ccc(-n3cccc3C(=O)N3CCCCC3)cc2OC)ncc1Cl |
| 64 | 1.06 | 72 |  |  | COc1cc(-n2cccc2C(=O)O)ccc1Nc1ncc(Cl)c(Nc2ccccc2NS(C)(=O)=O)n1 |
| 1410 | > 10 | 430 |  |  | CNC(=O)c1ccccc1Nc1nc(Nc2ccc(-n3cccc3C(=O)N3CCN(CCO)CC3)cc2OC)ncc1Cl |

| IC50 [1] [nM] | IC50 [2] [µM] | IC50 [3] [nM] | IC50 [4] [nM] | IC50 [5] [nM] | Structure (SMILES) |
| --- | --- | --- | --- | --- | --- |
| 1070 |  |  |  |  | Cc1cc(Nc2ncc(Cl)c(Nc3ccccc3S(=O)(=O)C(C)C)n2)c(OC(C)C)cc1C1CCNCC1 [CERITINIB] |
| 610 | 1.77 | 640 |  |  | COc1cc(-n2cccc2C(=O)N2CCOCC2)ccc1Nc1ncc(Cl)c(Nc2ccccc2NS(C)(=O)=O)n1 |
| 89 | 4.12 | 1070 |  |  | CNC(=O)c1ccccc1Nc1nc(Nc2ccc(-n3cccc3C(=O)N(C)C)cc2OC)ncc1Cl |
| 1270 | 1.57 | 940 |  |  | CCN1CCN(C(=O)c2cccn2-c2ccc(Nc3ncc(Cl)c(Nc4ccccc4C(=O)NC)n3)c(OC)c2)CC1 |
| 770 | > 10 | 840 |  |  | CNC(=O)c1ccccc1Nc1nc(Nc2ccc(-n3cccc3C(=O)N3CCCC3)cc2OC)ncc1Cl |
| 980 | > 10 | 90 |  |  | CNC(=O)c1ccccc1Nc1nc(Nc2ccc(-n3cccc3C(=O)N3CCN(C)CC3)cc2OC)ncc1Cl |
| 87 | 2.49 | 170 |  |  | CNC(=O)c1ccccc1Nc1nc(Nc2ccc(-n3cccc3C(=O)O)cc2OC)ncc1Cl |
| 1130 | > 10 | 1410 | 11.7 | 8.5 | CCN1CCN(C(=O)c2cccn2-c2ccc(Nc3ncc(Cl)c(Nc4ccccc4NS(C)(=O)=O)n3)c(OC)c2)CC1 |
| 1070 | > 10 | 970 |  |  | CNC(=O)c1ccccc1Nc1nc(Nc2ccc(-n3cccc3C(=O)N3CCC(O)CC3)cc2OC)ncc1Cl |
| 1050 | > 10 | 970 |  |  | COc1cc(-n2cccc2C(=O)N2CCN(C)CC2)ccc1Nc1ncc(Cl)c(Nc2ccccc2NS(C)(=O)=O)n1 |
| 970 | 8.51 | 890 |  |  | CNC(=O)c1ccccc1Nc1nc(Nc2ccc(-n3cccc3C(=O)OC)cc2OC)ncc1Cl |
| 950 | 2.51 | 790 |  |  | COC(=O)c1cccn1-c1ccc(Nc2ncc(Cl)c(Nc3ccccc3NS(C)(=O)=O)n2)c(OC)c1 |
| 87 | 0.97 | 105 |  |  | CCN(CC)C(=O)c1cccn1-c1ccc(Nc2ncc(Cl)c(Nc3ccccc3NS(C)(=O)=O)n2)c(OC)c1 |
| 540 | 3.49 | 270 |  |  | CCN(CC)C(=O)c1cccn1-c1ccc(Nc2ncc(Cl)c(Nc3ccccc3C(=O)NC)n2)c(OC)c1 |
| 1040 | 2.18 | 1140 |  |  | CNC(=O)c1ccccc1Nc1nc(Nc2ccc(-n3cccc3C(=O)N3CCSCC3)cc2OC)ncc1Cl |

— ChEMBL document CHEMBL4665881, “Pyrroformyl-containing 2,4-diaminopyrimidine derivatives as a new optimization strategy of ALK inhibitors combating mutations” (Bioorg Med Chem, 2020)
